Blank lines part the entries; values can stand above or below the compound they belong to. Activity calls are given as the source filed them. The rule behind the calls is not given here.
Tests used:
[1] = test system: HepG2; test: Effect on TGR5 protein level in human HepG2 cells by Western blot analysis; type: functional, cell-based
[2] = test system: MDCK; test: Effect on TGR5 protein level in dog MDCK cells by Western blot analysis; type: functional, cell-based; details: Canis lupus familiaris
[3] = test system: HCT-116; test: Effect on TGR5 protein level in human HCT-116 cells by Western blot analysis; type: functional, cell-based
[4] = test system: HepG2; test: Antiproliferative activity against human HepG2 cells assessed as inhibition of cell proliferation incubated for 24 hrs by CCK-8 assay; type: functional, cell-based; details: HepG2, 24 h
[5] = test system: HCT-116; test: Antiproliferative activity against human HCT-116 cells assessed as inhibition of cell proliferation incubated for 24 hrs by CCK-8 assay; type: functional, cell-based; details: HCT-116, 24 h
[6] = Antiproliferative activity against dog MDCK cells assessed as inhibition of cell proliferation incubated for 24 hrs by CCK-8 assay; type: toxicity, cell-based, Canis lupus familiaris
[7] = test system: HCT-116; test: Cytotoxicity against human HCT-116 cells assessed as cell viability upto 80 uM incubated for 24 hrs by CCK-8 assay; type: toxicity, cell-based; details: hct-116, 24 h
[8] = test system: HCT-116; test: Cytotoxicity against human HCT-116 cells assessed as cell viability at 320 uM incubated for 24 hrs by CCK-8 assay; type: toxicity, cell-based; details: hct-116, 24 h
[9] = Photophysical property of the compound assessed as maximum fluorescent emission peak at 0.03125 to 4 uM by fluorescence spectrophotometric analysis; type: physicochemical; details: dose 0.03125-4 µM
[10] = Drug localization in human HCT-116 cells Endoplasmic reticulum assessed as increase fluorescence at 30 uM incubated for 30 mins by ER-tracker red probe based inverted fluorescent microscopic analysis; type: ADME, subcellular; details: hct-116, 0.5 h
[11] = Drug localization in human HCT-116 cells Mitochondria assessed as increase fluorescence at 30 uM incubated for 30 mins by mito-tracker probe based inverted fluorescent microscopic analysis; type: ADME; details: hct-116, 0.5 h
[12] = Drug localization in human HCT-116 cells Lysosome assessed as increase fluorescence at 30 uM incubated for 30 mins by lyso-tracker probe based inverted fluorescent microscopic analysis; type: ADME, subcellular; details: hct-116, 0.5 h

IC50 [4]: 2100 nM
IC50 [5]: 5.5 µM
Compound: C=C(C(NCCNC(=O)CC[C@@H](C)[C@H]1CC[C@H]2[C@@H]3CC[C@@H]4C[C@H](O)CC[C@]4(C)[C@H]3CC[C@]12C)c1ccc(C(=O)OCCOCCOCCOC(=O)O[C@H]2c3cc4c(cc3[C@@H](c3cc(OC)c(OC)c(OC)c3)[C@H]3C(=O)OC[C@@H]32)OCO4)cc1)S(=O)(=O)c1cccc2c(N(C)C)cccc12 (some centres not stated)
Activity [1]: Active
Activity [2]: Active
Activity [3]: Active
IC50 at 24 h [6]: 14.6 µM

Compound: C=C(C(NCCNC(=O)C(C)c1ccc(CC(C)C)cc1)c1ccc(C(=O)OC)cc1)S(=O)(=O)c1cccc2c(N(C)C)cccc12 (configuration not stated)
Activity [7]: Toxic

Activity [9]: Active
Drug uptake [10]: Active
Drug uptake [11]: Not_active
Drug uptake [12]: Not_active
Compound: C=C(C(NCCOC(=O)C(C)c1ccc(CC(C)C)cc1)c1ccc(C(=O)OC)cc1)S(=O)(=O)c1cccc2c(N(C)C)cccc12 (configuration not stated)
Activity [8]: Non-toxic

Reference: ChEMBL document CHEMBL6078654, “Modular Assembly of Heterotrifunctional Molecules Enabled by Iodosulfonylation of Allenes and Subsequent Amination” (J Med Chem, 2024)
